Measured values reported in patent publication US9326985B2, “Heteroaryl pyridone and aza-pyridone amide compounds” (Genentech, Inc., priority 2013, dated 2016).
pIC50, pKi: −log10 of the molar value.

Tests used:
[1] = tested on: CD69 by B lymphocytes in human whole blood activated with goat F(ab')2 anti-human IgM; assay: CD69 Whole Blood Assay (CD69 Hu Blood FACS); assay type: cell-based; conditions: Lymphocyte, CD69 positive of CD20 positive cells
How it was run: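 Heparinized human whole blood from healthy drug-free non-smokers preincubated 30 min at 37 °C with ten-point 3-fold compound dilutions, then stimulated with goat F(ab′)2 anti-human IgM (50 μg/ml final) for 20 h. CD69 on B cells read by flow cytometry as mean fluorescence intensity.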

[2] = biological target: T1, full length human wildtype Btk (Homo sapiens, UniProt Q06187); assay: Biochemical Btk Assay (BTK LC3K)
T1 construct: V5 (C); 6xHis (C); made in house; host or cells: Sf9 insect cells (baculovirus, pFastBac)
T1 sequence (Q06187 whole entry): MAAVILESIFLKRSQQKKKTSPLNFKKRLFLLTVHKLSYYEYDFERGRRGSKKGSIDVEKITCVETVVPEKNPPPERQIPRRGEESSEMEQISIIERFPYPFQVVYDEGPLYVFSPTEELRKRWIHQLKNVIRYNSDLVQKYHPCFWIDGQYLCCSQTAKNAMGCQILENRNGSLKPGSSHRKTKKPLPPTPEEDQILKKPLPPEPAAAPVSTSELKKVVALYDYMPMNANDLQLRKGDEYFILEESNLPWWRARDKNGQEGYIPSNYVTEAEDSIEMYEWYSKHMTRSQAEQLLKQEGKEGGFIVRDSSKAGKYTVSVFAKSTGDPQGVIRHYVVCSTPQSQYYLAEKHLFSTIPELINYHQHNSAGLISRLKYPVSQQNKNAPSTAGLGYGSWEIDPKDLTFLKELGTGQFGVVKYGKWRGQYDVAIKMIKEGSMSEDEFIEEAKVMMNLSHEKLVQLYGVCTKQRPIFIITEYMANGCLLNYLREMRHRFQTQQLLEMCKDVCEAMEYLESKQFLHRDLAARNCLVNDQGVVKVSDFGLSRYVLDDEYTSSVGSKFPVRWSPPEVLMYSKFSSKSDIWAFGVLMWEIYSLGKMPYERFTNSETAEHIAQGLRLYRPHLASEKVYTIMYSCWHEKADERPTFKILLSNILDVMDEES
Procedure: A generalized procedure for a standard biochemical Btk, Kinase Assay that can be used to test Formula I compounds is as follows. A master mix minus Btk enzyme is prepared containing 1× Cell Signaling kinase buffer (25 mM Tris-HCl, pH 7.5, 5 mM beta-glycerophosphate, 2 mM dithiothreitol, 0.1 mM Na3VO4, 10 mM MgCl2), 0.5 μM Promega PTK Biotinylated peptide substrate 2, and 0.01% BSA. A master mix plus Btk enzyme is prepared containing 1× Cell Signaling kinase buffer, 0.5 μM (micromolar) PTK Biotinylated peptide substrate 2, 0.01% BSA, and 100 ng/well (0.06 mU/well) Btk enzyme. Btk enzyme is prepared as follows: full length human wildtype Btk (accession number NM-000061) with a C-terminal V5 and 6×His tag was subcloned into pFastBac® vector (Invitrogen/Life Technologies) for making baculovirus carrying this epitope-tagged Btk. […] Passage 3 virus is used to infect Sf9 cells to overexpress the recombinant Btk protein. The Btk protein is then purified to homogeneity using Ni-NTA column. […] A solution of 200 μM ATP is prepared in water and adjusted to pH 7.4 with 1N NaOH. A quantity of 1.25 μL (microliter) of compounds in 5% DMSO is transferred to a 96-well ½ area Costar polystyrene plate. Compounds are tested singly and with an 11-point dose-responsive curve (starting concentration is 10 μM; 1:2 dilution). A quantity of 18.75 μL of master mix minus enzyme (as a negative control) and master mix plus enzyme is transferred to appropriate wells in 96-well ½ area costar polystyrene plate. 5 μL of 200 μM ATP is added to that mixture in the 96-well ½ area Costar polystyrene plate for final ATP concentration of 40 μM. The reaction is allowed to incubate for 1 hour at room temperature. The reaction is stopped with Perkin Elmer 1× detection buffer containing 30 mM EDTA, 20 nM SA-APC, and 1 nM PT66 Ab. […] IC50 values are subsequently calculated. Alternatively, the Lanthascreen assay can be used to evaluate Btk activity through quantification of its phosphorylated peptide product. The FRET (Fluorescence Resonance Energy Transfer) that occurs between the fluorescein on the peptide product and the terbium on the detection antibody decreases with the addition of inhibitors of Btk that reduce the phosphorylation of the peptide. In a final reaction volume of 25 uL, Btk (h) (0.1 ng/25 ul reaction) is incubated with 50 mM Hepes pH 7.5, 10 mM MgCl2, 2 mM MnCl2, 2 mM DTT, 0.2 mM NaVO4, 0.01% BSA, and 0.4 uM fluorescein poly-GAT. […] After incubation for 60 minutes at room temperature, the reaction is stopped by the addition of a final concentration of 2 nM Tb-PY20 detection antibody in 60 mM EDTA for 30 minutes at room temperature.

With `CN(C)C(=O)C1C[C@H]1C(=O)Nc1cc(-c2ccnc(-n3ncc4cc(C(C)(C)C)cc(F)c4c3=O)c2CO)cn(C)c1=O` (single isomer, unassigned) [Compound 170, N2-[5-[2-(6-tert-butyl-8-fluoro-1-oxo-phthalazin-2-yl)-3-(hydroxymethyl)-4-pyridyl]-1-methyl-2-oxo-3-pyridyl]-N1,N1-dimethyl-cyclopropane-1,2-dicarboxamide] the pIC50 ([1]; Table 2, anti-IgM stimulation) was under 5.32 and the pKi ([2]; Table 2) was 7.60.

For `Cn1cc(-c2ccnc(N3CCc4cc(OC(F)(F)F)ccc4C3=O)c2CO)cc(NC(=O)C2CC2)c1=O` [Compound 158, N-[5-[3-(hydroxymethyl)-2-[1-oxo-6-(trifluoromethoxy)-3,4-dihydroisoquinolin-2-yl]-4-pyridyl]-1-methyl-2-oxo-3-pyridyl]cyclopropanecarboxamide], the pIC50 ([1]; Table 2, anti-IgM stimulation) was under 5.36 and the pKi ([2]; Table 2) was 6.58.

`CCOC1C[C@@H]1C(=O)Nc1cc(-c2ccnc(N3CCn4c(cc5c4CC(C)(C)C5)C3=O)c2CO)cn(C)c1=O` (mixture of isomers) [Compound 145, (1S)—N-[5-[2-(7,7-dimethyl-4-oxo-1,2,6,8-tetrahydrocyclopenta[3,4]pyrrolo[3,5-b]pyrazin-3-yl)-3-(hydroxymethyl)-4-pyridyl]-1-methyl-2-oxo-3-pyridyl]-2-ethoxy-cyclopropanecarboxamide] gave a pIC50 ([1]; Table 2, anti-IgM stimulation) of 6.20 and a pKi ([2]; Table 2) of 7.96.

Compound `Cn1cc(C(=O)Nc2cc(-c3ccnc(N4CCn5c(cc6c5CC(C)(C)C6)C4=O)c3CO)cn(C)c2=O)cn1` [Compound 110, N-[5-[2-(7,7-dimethyl-4-oxo-1,2,6,8-tetrahydrocyclopenta[3,4]pyrrolo[3,5-b]pyrazin-3-yl)-3-(hydroxymethyl)-4-pyridyl]-1-methyl-2-oxo-3-pyridyl]-1-methyl-pyrazole-4-carboxamide] has a pIC50 ([1]; Table 1, anti-IgM stimulation) of under 5.59 and a pKi ([2]; Table 1) of under 6.78.

Compound `COCC(=O)Nc1cc(-c2ccnc(-n3ncc4cc(C(C)(C)C)cc(F)c4c3=O)c2CO)cn(C)c1=O` [Compound 156, N-[5-[2-(6-tert-butyl-8-fluoro-1-oxo-phthalazin-2-yl)-3-(hydroxymethyl)-4-pyridyl]-1-methyl-2-oxo-3-pyridyl]-2-methoxy-acetamide] has a pIC50 ([1]; Table 2, anti-IgM stimulation) of under 5.35 and a pKi ([2]; Table 2) of 7.68.

With `CCNC(=O)Nc1cc(-c2ccnc(N3CCn4c(cc5c4CC(C)(C)C5)C3=O)c2CO)cn(C)c1=O` [Compound 159, 1-[5-[2-(7,7-dimethyl-4-oxo-1,2,6,8-tetrahydrocyclopenta[3,4]pyrrolo[3,5-b]pyrazin-3-yl)-3-(hydroxymethyl)-4-pyridyl]-1-methyl-2-oxo-3-pyridyl]-3-ethyl-urea] the pIC50 ([1]; Table 2, anti-IgM stimulation) was 6.88 and the pKi ([2]; Table 2) was 8.80.

Compound `Cc1cc(C)n(CC(=O)Nc2cc(-c3ccnc(N4CCn5c(cc6c5CC(C)(C)C6)C4=O)c3CO)cn(C)c2=O)n1` [Compound 108, N-[5-[2-(7,7-dimethyl-4-oxo-1,2,6,8-tetrahydrocyclopenta[3,4]pyrrolo[3,5-b]pyrazin-3-yl)-3-(hydroxymethyl)-4-pyridyl]-1-methyl-2-oxo-3-pyridyl]-2-(3,5-dimethylpyrazol-1-yl)acetamide] has a pIC50 ([1]; Table 1, anti-IgM stimulation) of 5.62 and a pKi ([2]; Table 1) of 7.29.

Work on `Cn1cc(-c2cccc(N3CCc4c(cc5n4CC(C)(C)C5)C3=O)c2CO)cc(NC(=O)C2CC2)c1=O` [Compound 142, N-[5-[3-(7,7-dimethyl-4-oxo-1,2,6,8-tetrahydropyrido[3,4-b]pyrrolizin-3-yl)-2-(hydroxymethyl)phenyl]-1-methyl-2-oxo-3-pyridyl]cyclopropanecarboxamide] yielded a pIC50 ([1]; Table 2, anti-IgM stimulation) of 7.15 and a pKi ([2]; Table 2) of 8.74.
